Each structure is given as a SMILES string. Some results are limits rather than exact numbers.

IC50 data for 18 molecules are collected here from US9856279B2 (AGIOS PHARMACEUTICALS, INC, priority 2011, dated 2018).

In one assay the target is IDH1 R132H (Homo sapiens, UniProt O75874, R132H). As to the kind of experiment: Assay for IDH1 R132H inhibitors (NADPH/aKG, resazurin detection). The assay is classed as biochemical. The following applies: enzyme assay of Example 12; read-out: IDH1R132H IC50. The method, boiled down:
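Compound added to substrate mix (8 uM NADPH, 2 mM aKG), then enzyme mix (0.2 μg/ml IDH1 R132H); 50 min RT in 20 mM Tris pH 7.5, 150 mM NaCl, 10 mM MgCl2, 0.03% BSA. Resazurin detection mix (30 μM) 5 min RT; resorufin fluorescence Ex544/Em590.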
On the technique in general: Resazurin is reduced to fluorescent resorufin, in cell work by metabolically active cells.

A further assay concerns U87MG cells. As to the kind of experiment: Cellular assay for IDH1m inhibitors: inhibition of 2-HG production (LC-MS, 48 hours) in U87MG cells. The assay is classed as cell-based. Particulars: Homo sapiens, U-87 MG, inhibition of 2-HG production, U87R132H cells; read-out: U87R132H IC50. The method, boiled down:
(§1)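 Inhibition of 2-HG production was assessed in cells seeded at 5000/well and exposed to compound for 48 h (final DMSO 0.2%). Supernatant 2-HG was analysed by LC-MS.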

In another assay the test system is HT1080 cells. Briefly: Cellular assay for IDH1m inhibitors: inhibition of 2-HG production (LC-MS, 48 hours) in HT1080 cells. Particulars: Homo sapiens, HT-1080; inhibition of 2-HG production, HT1080 cells; read-out: HT1080 IC50. The assay is classed as cell-based. The procedure, abridged:
as §1

IDH1 R132H, sequence (O75874 whole entry R132H): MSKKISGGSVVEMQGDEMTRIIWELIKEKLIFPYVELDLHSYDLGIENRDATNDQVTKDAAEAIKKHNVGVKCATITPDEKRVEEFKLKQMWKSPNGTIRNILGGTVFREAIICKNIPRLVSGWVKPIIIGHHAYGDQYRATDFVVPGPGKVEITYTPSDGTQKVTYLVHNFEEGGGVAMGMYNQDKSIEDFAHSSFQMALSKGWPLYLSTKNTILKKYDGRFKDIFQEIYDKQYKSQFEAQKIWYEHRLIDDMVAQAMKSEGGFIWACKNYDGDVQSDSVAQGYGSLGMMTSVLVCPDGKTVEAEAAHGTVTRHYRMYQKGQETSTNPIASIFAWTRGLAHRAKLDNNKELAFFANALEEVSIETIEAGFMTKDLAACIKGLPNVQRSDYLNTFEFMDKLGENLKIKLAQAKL

Consider `C=Cc1cc(Nc2cc(C#N)c(N3CCN(C(=O)CCOC)[C@H](C4CC4)C3)nc2C2CC2)ccn1` [Compound 678, (R)-6-cyclopropyl-2-(3-cyclopropyl-4-(3-methoxypropanoyl)piperazin-1-yl)-5-((2-vinylpyridin-4-yl)amino)nicotinonitrile], for which the IC50 at IDH1 R132H, in the assay with U87MG cells and in the assay on HT1080 cells was under 500 nM throughout.

Take `C=Cc1cc(-c2cc(C#N)c(N3CCN(C(=O)C[C@H]4CCO4)[C@H](C4CC4)C3)nc2C2CC2)ccn1` [Compound 752, 2-cyclopropyl-6-((R)-3-cyclopropyl-4-(2-((R)-oxetan-2-yl)acetyl)piperazin-1-yl)-2′-vinyl-3,4′-bipyridine-5-carbonitrile]: the IC50 at IDH1 R132H, in the assay with U87MG cells and in the assay on HT1080 cells was under 500 nM in each case.

`COCCC(=O)N1CCN(c2nc(C3CC3)c(-c3cccc4nc(O)ccc34)cc2C#N)C[C@H]1C` [Compound 442, (R)-6-cyclopropyl-5-(2-hydroxyquinolin-5-yl)-2-(4-(3-methoxypropanoyl)-3-methylpiperazin-1-yl)nicotinonitrile]: the IC50 on IDH1 R132H, in the assay on U87MG cells and in the assay on HT1080 cells was under 500 nM throughout.

As for `C=Cc1cnc2c(-c3cc(C#N)c(N4CCN(C(=O)CCO)[C@H](C)C4)nc3C3CC3)cccc2n1` [Compound 618, (R)-6-cyclopropyl-2-(4-(3-hydroxypropanoyl)-3-methylpiperazin-1-yl)-5-(2-vinylquinoxalin-5-yl)nicotinonitrile], the IC50 on IDH1 R132H, in the assay on U87MG cells and in the assay with HT1080 cells was under 500 nM each time.

As for `C=Cc1cc(-c2c(C3CC3)nc(N3CCN(C(=O)CCCOC)[C@H](C(C)C)C3)c(C#N)c2C)ccn1` [Compound 788, (R)-2-cyclopropyl-6-(3-isopropyl-4-(4-methoxybutanoyl)piperazin-1-yl)-4-methyl-2′-vinyl-3,4′-bipyridine-5-carbonitrile], the IC50 on IDH1 R132H, in the assay on U87MG cells and in the assay on HT1080 cells was under 500 nM in each case.

As to `COCCC(=O)N1CCN(c2nc(C3CC3)c(-c3ccc(F)nc3)c(C)c2C#N)C[C@H]1C` [Compound 346], the results for the IC50 at IDH1 R132H, with U87MG cells and in the assay on HT1080 cells were under 500 nM, 500 to 1000 nM and 1000 to 10000 nM, respectively.

On to `COCCC(=O)N1CCN(c2nc(C3CC3)c(-c3ccc(N)cc3)cc2C#N)C[C@H]1C` [Compound 383, (R)-5-(4-aminophenyl)-6-cyclopropyl-2-(4-(3-methoxypropanoyl)-3-methylpiperazin-1-yl)nicotinonitrile], for which the values for the half-inhibitory concentration (IC50) on IDH1 R132H, in the assay with U87MG cells and with HT1080 cells were under 500 nM, 1000 to 10000 nM and 1000 to 10000 nM, respectively.

For the molecule `C=Cc1cc(-c2c(C3CC3)nc(N3CCN(C(=O)CCOC)[C@H](C4CC4)C3)c(C#N)c2C)ccn1` [Compound 558, (R)-2-cyclopropyl-6-(3-cyclopropyl-4-(3-methoxypropanoyl)piperazin-1-yl)-4-methyl-2′-vinyl-3,4′-bipyridine-5-carbonitrile], the IC50 at IDH1 R132H, with U87MG cells and in the assay on HT1080 cells was under 500 nM each time.

As to `C=CC(=O)N1CC=C(c2cc(C#N)c(N3CCN(C(=O)C4CC4)[C@H](C)C3)nc2C2CC2)C1` [Compound 612, (R)-5-(1-acryloyl-2,5-dihydro-1H-pyrrol-3-yl)-2-(4-(cyclopropanecarbonyl)-3-methylpiperazin-1-yl)-6-cyclopropylnicotinonitrile], the half-inhibitory concentration (IC50) at IDH1 R132H, in the assay with U87MG cells and in the assay with HT1080 cells was under 500 nM in each case.

Consider `COCCC(=O)N1CCN(c2nc(C3CC3)c(-c3ccc4[nH]cnc4c3)cc2C#N)C[C@H]1C` [Compound 361, (R)-5-(1H-benzoimidazol-5-yl)-6-cyclopropyl-2-[4-(3-methoxy-propionyl)-3-methyl-piperazin-1-yl]-nicotinonitrile], for which the results for the IC50 at IDH1 R132H, in the assay on U87MG cells and with HT1080 cells were under 500 nM, 500 to 1000 nM and 1000 to 10000 nM, respectively.

As to `C=CC(=O)Nc1ccc(C(C)Oc2cc(C#N)c(N3CCN(C(=O)CCOC)[C@H](C)C3)nc2C2CC2)cc1` (stereo partly drawn) [Compound 389, N-(4-(1-(5-cyano-2-cyclopropyl-6-((R)-4-(3-methoxypropanoyl)-3-methylpiperazin-1-yl)pyridin-3-yloxy)ethyl)phenyl)acrylamide], the IC50 on IDH1 R132H, with U87MG cells and in the assay with HT1080 cells was under 500 nM each time.

Regarding `C=Cc1cc(-c2cc(C#N)c(N3CCN(C(=O)C[C@@H](C)O)[C@H](C4CC4)C3)nc2C2CC2)ccn1` [Compound 585, 2-cyclopropyl-6-((R)-3-cyclopropyl-4-((R)-3-hydroxybutanoyl)piperazin-1-yl)-2′-vinyl-3,4′-bipyridine-5-carbonitrile], the half-maximal inhibitory concentration (IC50) at IDH1 R132H, with U87MG cells and in the assay with HT1080 cells was under 500 nM throughout.

On to `C=Cc1cnnc(-c2cc(C#N)c(N3CCN(C(=O)CCO)[C@H](C4CC4)C3)nc2C2CC2)c1` [Compound 716, (R)-6-cyclopropyl-2-(3-cyclopropyl-4-(3-hydroxypropanoyl)piperazin-1-yl)-5-(5-vinylpyridazin-3-yl)nicotinonitrile], for which the IC50 on IDH1 R132H, in the assay with U87MG cells and in the assay on HT1080 cells was under 500 nM each time.

For `C=Cc1cc(-c2cc(C#N)c(N3CCN(C(=O)C4CC4)[C@H](C)C3)nc2C2CC2)ccn1` [Compound 443, (R)-6-(4-(cyclopropanecarbonyl)-3-methylpiperazin-1-yl)-2-cyclopropyl-2′-vinyl-3,4′-bipyridine-5-carbonitrile], the IC50 at IDH1 R132H, in the assay on U87MG cells and in the assay on HT1080 cells was under 500 nM in each case.

Consider `COCCC(=O)N1CCN(c2nc(C3CC3)c(-c3cccc4cnccc34)c(C)c2C#N)C[C@H]1C` [Compound 410, 6-cyclopropyl-5-(isoquinolin-5-yl)-2-((R)-4-(3-methoxypropanoyl)-3-methylpiperazin-1-yl)-4-methylnicotinonitrile], for which the IC50 on IDH1 R132H, in the assay with U87MG cells and in the assay on HT1080 cells was under 500 nM each time.

Turning to `COCCC(=O)N1CCN(c2nc(C3CC3)c(-c3cccc4cnccc34)cc2C#N)CC1C(F)(F)F` (stereo not drawn) [Compound 398, 6-cyclopropyl-5-(isoquinolin-5-yl)-2-(4-(3-methoxypropanoyl)-3-(trifluoromethyl)piperazin-1-yl)nicotinonitrile], the 50% inhibitory concentration (IC50) is under 500 nM at IDH1 R132H, 500 to 1000 nM in the assay with U87MG cells and 1000 to 10000 nM with HT1080 cells.

`CCc1cc(-c2cc(C#N)c(N3CCN(C(=O)CCOC)[C@H](C)C3)nc2C2CC2)ccn1` [Compound 426, (R)-2-cyclopropyl-2′-ethyl-6-(4-(3-methoxypropanoyl)-3-methylpiperazin-1-yl)-3,4′-bipyridine-5-carbonitrile]: the IC50 on IDH1 R132H was 500 to 1000 nM; in the assay on U87MG cells it was 1000 to 10000 nM; in the assay on HT1080 cells it was 1000 to 10000 nM.

Regarding `C=Cc1cc(-c2cc(C#N)c(N3CCN(C(=O)COC)[C@H](C4CC4)C3)nc2C2CC2)c2ccncc2n1` [Compound 717, (R)-6-cyclopropyl-2-(3-cyclopropyl-4-(2-methoxyacetyl)piperazin-1-yl)-5-(2-vinyl-1,7-naphthyridin-4-yl)nicotinonitrile], the IC50 at IDH1 R132H, in the assay with U87MG cells and in the assay on HT1080 cells was under 500 nM each time.

By IC50 is commonly meant the concentration that gives 50% inhibition.
